Assay results reported in patent US4402942A, “Oxytocin derivatives” (Ferring AB, priority 1980, dated 1983).

Columns and labels:
[1] = system: isolated rat uterus; test: Uterotonic potency on isolated rat uterus with oxytocin as standard; type: cell-based; details: rat in vitro
Procedure: The known compounds 2-O-methyltyrosine-oxytocin and 2-O-ethyltyrosine-oxytocin and a representative compound according to the invention, viz. 1-deamino-(2-O-ethyltyrosine)-oxytocin, was examined with regard to uterotonic potency on isolated rat uterus with use of oxytocin as standard. The antagonistic properties of the compounds were also evaluated with the aid of said preparation, but also in vivo with use of oxytocin as agonist. Moreover, the inhibition of oxytocin effect on isolated human myometrium was examined.
Sprague Dawley rats (body weight approximately 250 g) in natural estrous were selected by vaginal smears. […] Contractions were recorded isometrically at a resting tension of 1.5 g using Grass force transducers (Ft. 03). Antagonistic potency of the analogues was calculated as pA2 values (Rudinger, J. & Krejci, I. Experientia 18, (1962), 585-588). pA2 is a measure of the inhibitory property of the peptide and was defined by Schild (Schild, H. O., British Journal of Pharmacology, 2, (1947), 189-206) as the negative logarithm of the molar concentration of an antagonist which reduces the effect of a dose of agonist to that of half the dose.

[2] = system: rat uterus preparations stimulated with oxytocin; test: Antagonistic activity (pA2) on rat uterus preparations in vitro stimulated with oxytocin; type: cell-based; details: oxytocin as agonist
Procedure: Sprague Dawley rats (body weight approximately 250 g) in natural estrous were selected by vaginal smears. An approximately 20 mm long segment was cut from the middle of a uterine horn and mounted in an organ bath containing 10 ml of a modified Locke's solution of the following composition (mM:NaCl 153, KCl 5.63, CaCl2 0.541, NaHCO3 5.95 and glucose 2.78). The solution was gassed with 5% CO2 in oxygen at 30° C. The uterine contractions were allowed to stabilize for 30 minutes. Contractions were recorded isometrically at a resting tension of 1.5 g using Grass force transducers (Ft. 03). Antagonistic potency of the analogues was calculated as pA2 values (Rudinger, J. & Krejci, I. Experientia 18, (1962), 585-588). pA2 is a measure of the inhibitory property of the peptide and was defined by Schild (Schild, H. O., British Journal of Pharmacology, 2, (1947), 189-206) as the negative logarithm of the molar concentration of an antagonist which reduces the effect of a dose of agonist to that of half the dose.

[3] = system: isolated human myometrium (pregnant), oxytocin induced contractions; test: Inhibition of oxytocin induced contractions of isolated uterine tissue from pregnant women; type: cell-based; details: in vitro
Procedure: From 17 patients undergoing caesarean section (week 37-40) a transverse segment of uterine tissue was excised from the isthmic part of the uterus. Tissue pieces were also excised from the ventral side of the uterus of 21 non-pregnant women in fertile age undergoing hysterectomy. The tissue pieces were immediately placed in Krebs-Ringer solution (mM: NaCl 118, KCl 4.6, CaCl2 2.5, MgSO4 1.15, NaHCO3 24.9, KH2 PO4 1.15 and glucose 5.5) at 0° C. and used within two hours after the operation. Segments pieces 25×3×3 mm large were mounted in an organ bath containing 10 ml Krebs-Ringer solution at 37° C. and gassed with 5% CO2 in oxygen. After an adaptation period of 30 minutes contractions were isometrically recorded at a resting tension of 1.25 g. In experiments involving pregnant women use was made of oxytocin (0.013-1.3 μg/ml) as an agonist. Lysinevasopressin (0.07-1.3 μg/ml) was used as an agonist where non-pregnant tissue was tested. A suitable dose of agonist was selected, which gave an effect corresponding to approximately 40% of the maximum effect. The antagonist was used in a concentration of 0.33-1.32 μg/ml. […] The inhibitory effect of the antagonist was measured by planimetry, for 15 minutes after the addition of the peptide, of the total surface of the curve recorded. Inhibition was expressed as a percentage of the effect obtained with the agonist alone.

[4] = system: uterine contractions caused by infusion of oxytocin; test: Rat in vivo uterine contractions under oxytocin infusion; details: for complete block of the uterine contraction pattern (oxytocin initiated and spontaneous): dose of 2 μg; for inhibition of the increase of strength of uterine contractions caused by oxytocin infusion: oxytocin 0.05 μg/min/100 g body weight
Procedure: Sprague Dawley rats (250 g) in natural estrous were anaesthetized with Inactin (0.5 mg/100 g body weight i.p.). Myometrial activity was recorded by means of a catheter fixed in the uterine cavity and filled with modified Locke's solution. The catheter was connected to a Statham P23d transducer and contractions were recorded on a Grass polygraph (model 7D). Oxytocin was infused intravenously (0.05 μg/min/100 g body weight). When a regular contraction pattern had been obtained the antagonist (0.8-8.0 μg/100 g body weight) was administered intravenously in a volume of 0.2 ml. The recorded curve was integrated over 10 minute intervals immediately before and after injection of the antagonist.

[5] = system: oxytocin induced uterine contractions; details: literature, studies on rats; cited from earlier work
[6] = Blood pressure after intravenous dose; type: in vivo; details: 30 μg intravenously
[7] = system: spontaneous uterine function; details: Swedish patent 7713/70; cited from earlier work

Compound	uterotonic potency [1]	pA2 (average ± average error) [2]	inhibition of oxytocin induced contractions [3]	complete block of the uterine contraction pattern (oxytocin initiated and spontaneous) [4]	inhibition of the increase of strength of uterine contractions caused by oxytocin infusion [4]	effect on oxytocin induced uterine contractions [5]	effect on the blood pressure [6]	effect on the spontaneous uterine function [7]
2-O-ethyltyrosine-oxytocin	1-2 IU/mg	7.13 ± 0.09	a significant inhibition was obtained, which was however considerably lower than with use of the compound according to the invention	lack this ability	dose dependent reversible inhibition	antagonistic effect	–	–
2-O-methyltyrosine-oxytocin	1-2 IU/mg	6.68 ± 0.12	–	lack this ability	dose dependent reversible inhibition	antagonistic effect	–	–
CCOc1ccc(C[C@@H]2NC(=O)CCSSC[C@@H](C(=O)N3CCC[C@H]3C(=O)N[C@@H](CC(C)C)C(=O)NCC(N)=O)NC(=O)[C@H](CC(N)=O)NC(=O)[C@H](CCC(N)=O)NC(=O)[C@H]([C@@H](C)CC)NC2=O)cc1 [1-deamino-2-O-ethyltyrosine-oxytocin]	–	7.19 ± 0.10	–	–	–	–	no effect at all on the blood pressure	–
N^α -acetyl-2-O-methyltyrosine-oxytocin	–	–	–	–	–	antagonistic effect	–	no effect on the spontaneous uterine function
[1-deaminopenicillamine,2-O-methyltyrosine]oxytocin	–	–	–	–	–	antagonistic effect	–	–
